Assay results as given in article PMC7216583 (Parasites & Vectors, 2020).
Counter-ions that a name gives are not always drawn. Like-named read-outs stand apart in the source and are kept apart here.

What was measured:
[1] = tested on: Toxoplasma gondii RH-2F tachyzoites; conditions: preliminary screen, mean
VEGFR1 = tested on: VEGFR1; design: method as in library vendor description; conditions: ref library vendor description; cited from earlier work
[2] = tested on: human foreskin fibroblasts (HFFs)
Ron = tested on: Ron; design: method as in library vendor description; conditions: ref library vendor description; cited from earlier work
VEGFR3 = tested on: VEGFR3; design: method as in library vendor description; conditions: ref library vendor description; cited from earlier work
Tie2 = tested on: Tie2; design: method as in library vendor description; conditions: ref library vendor description; cited from earlier work
[3] = tested on: Toxoplasma gondii RH-2F tachyzoites; experiment: microbe, parasite or virus in culture; conditions: 72 h
PDGFRα = tested on: PDGFRα; design: method as in S-inhibitor; conditions: ref S-inhibitor; cited from earlier work
VEGFR2 = tested on: VEGFR2; design: method as in S-inhibitor; conditions: ref S-inhibitor; cited from earlier work
c-Kit = tested on: c-Kit; design: method as in S-inhibitor; conditions: ref S-inhibitor; cited from earlier work
p38 MAPK = tested on: p38 MAPK; design: method as in S-inhibitor; conditions: ref S-inhibitor; cited from earlier work
Aurora C = tested on: Aurora C; design: method as in S-inhibitor; conditions: ref S-inhibitor; cited from earlier work
Aurora B = tested on: Aurora B; design: method as in S-inhibitor; conditions: ref S-inhibitor; cited from earlier work
in vitro = conditions: human, Host viability (%) mean
ROCK = tested on: ROCK; design: method as in S-inhibitor; conditions: ref S-inhibitor; cited from earlier work
microtubule [4] = tested on: microtubule; design: method as in library vendor description; conditions: ref library vendor description; cited from earlier work
HIV-I integrase (IN) = biological target: HIV-I integrase (IN); design: method as in S-inhibitor; conditions: ref S-inhibitor; cited from earlier work
sterol C14ɑ demethylase = biological target: sterol C14ɑ demethylase; design: method as in library vendor description; conditions: ref library vendor description; cited from earlier work
CDK7 = tested on: CDK7; design: method as in S-inhibitor; conditions: ref S-inhibitor; cited from earlier work
CDK2 = tested on: CDK2; design: method as in S-inhibitor; conditions: ref S-inhibitor; cited from earlier work
CDK5 = tested on: CDK5; design: method as in S-inhibitor; conditions: ref S-inhibitor; cited from earlier work
ROCK1 = tested on: ROCK1; design: method as in S-inhibitor; conditions: ref S-inhibitor; cited from earlier work
ROCK2 = tested on: ROCK2; design: method as in S-inhibitor; conditions: ref S-inhibitor; cited from earlier work
PI3Kγ [5] = tested on: PI3Kγ; design: method as in library vendor description; conditions: ref library vendor description; cited from earlier work
PI3Kα = tested on: PI3Kα; design: method as in library vendor description; conditions: ref library vendor description; cited from earlier work
PI3Kβ = tested on: PI3Kβ; design: method as in library vendor description; conditions: ref library vendor description; cited from earlier work
PI3Kδ = tested on: PI3Kδ; design: method as in library vendor description; conditions: ref library vendor description; cited from earlier work
mTOR = tested on: mTOR; design: method as in library vendor description; conditions: ref library vendor description; cited from earlier work
Flk-1/KDR = biological target: Flk-1/KDR; design: method as in S-inhibitor; conditions: ref S-inhibitor; cited from earlier work
PDGFRβ = biological target: PDGFRβ; design: method as in S-inhibitor; conditions: ref S-inhibitor; cited from earlier work
LPDE4 = tested on: LPDE4; design: method as in S-inhibitor; conditions: ref S-inhibitor; cited from earlier work
HPDE4 = tested on: HPDE4; design: method as in S-inhibitor; conditions: ref S-inhibitor; cited from earlier work
PI3Kγ [6] = conditions: read-out: IC50, PI3Kγ; ref S-inhibitor; cited from earlier work
JAK1 = conditions: read-out: IC50, JAK1; ref S-inhibitor; cited from earlier work
JAK3 = conditions: read-out: IC50, JAK3; ref S-inhibitor; cited from earlier work
Flt = tested on: Flt; design: method as in S-inhibitor; conditions: ref S-inhibitor; cited from earlier work
EGFR = tested on: EGFR; design: method as in S-inhibitor; conditions: ref S-inhibitor; cited from earlier work
HER2/ErbB2 = tested on: HER2/ErbB2; design: method as in S-inhibitor; conditions: ref S-inhibitor; cited from earlier work
HDAC3 = tested on: HDAC3; design: method as in S-inhibitor; conditions: ref S-inhibitor; cited from earlier work
HDAC8 = tested on: HDAC8; design: method as in S-inhibitor; conditions: ref S-inhibitor; cited from earlier work
[7] = biological target: farnesyltransferase (FTase); design: method as in S-inhibitor; conditions: ref S-inhibitor; cited from earlier work
KSP (HsEg5) = biological target: KSP (HsEg5); design: method as in S-inhibitor; conditions: ref S-inhibitor; cited from earlier work
Aβ42 = tested on: Aβ42; design: method as in library vendor description; conditions: γ-secretase inhibitor; ref library vendor description; cited from earlier work
Aβ40 = tested on: Aβ40; design: method as in library vendor description; conditions: γ-secretase inhibitor; ref library vendor description; cited from earlier work
TBK1 = tested on: TBK1; design: method as in library vendor description; conditions: ref library vendor description; cited from earlier work
PDK-1 = tested on: PDK-1; design: method as in library vendor description; conditions: ref library vendor description; read-out: IC50 PDK-1; cited from earlier work
IKKε = tested on: IKKε; design: method as in library vendor description; conditions: ref library vendor description; cited from earlier work
HCV polymerase = biological target: HCV polymerase; design: method as in S-inhibitor; conditions: ref S-inhibitor; cited from earlier work
MAO-B = tested on: MAO-B; design: method as in S-inhibitor; conditions: ref S-inhibitor; cited from earlier work
HCV NS5A = tested on: HCV NS5A; design: method as in S-inhibitor; conditions: ref S-inhibitor; cited from earlier work
Bcl-w = biological target: Bcl-w; design: method as in library vendor description; conditions: ref library vendor description; cited from earlier work
Endothelin A (ETA) = tested on: Endothelin A (ETA); design: method as in S-inhibitor; conditions: ref S-inhibitor; cited from earlier work
[8] = biological target: PLK1 (Polo-like kinase 1); design: method as in S-inhibitor; conditions: ref S-inhibitor; cited from earlier work
microtubule [9] = tested on: microtubule; design: method as in S-inhibitor; conditions: ref S-inhibitor; cited from earlier work
[10] = read-out: Parasite inhibition (%) mean, preliminary screen, mean
[11] = read-out: Parasite inhibition (%) mean

## MGCD-265
[1]
  Parasite inhibition (%) mean: 88.8%
VEGFR1
  IC50: 3 nM
[2]
  Host viability (%) mean: 68.1%
Ron
  IC50: 2 nM
VEGFR3
  IC50: 4 nM
Tie2
  IC50: 7 nM

## COc1cc2nccc(Oc3ccc(NC(=O)Nc4ccc(F)cc4F)c(F)c3)c2cc1OC [Ki8751]
[3]; [10]
  inhibition of growth at 5 µM: -45.8%
PDGFRα
  IC50: 67 nM
VEGFR2
  IC50: 0.9 nM
c-Kit
  IC50: 40 nM

## CC(C)(C)Cn1c(N)nc2ccc(-c3[nH]c(C(C)(C)C)nc3-c3ccc(F)cc3)nc21 [LY2228820]
[3]; [10]
  inhibition of growth at 5 µM: -12.7%
p38 MAPK
  IC50: 7 nM

## CCc1cccc(CC)c1NC(=O)N1Cc2n[nH]c(NC(=O)c3ccc(N4CCN(C)CC4)cc3)c2C1 [PHA-680632]
[3]; [10]
  inhibition of growth at 5 µM: 88.8%
Aurora C
  IC50: 120 nM
Aurora B
  IC50: 135 nM
In vitro
  viability at 72 h: 45.2%

## O=C(NCc1ccccc1)c1csc(Nc2ccncn2)n1 [Thiazovivin]
[3]; [10]
  inhibition of growth at 5 µM: -0.7%
ROCK
  IC50: ~500 nM

## C/C(=C\c1csc(C)n1)[C@@H]1C[C@@H]2O[C@@H]2CCC[C@H](C)[C@H](O)[C@@H](C)C(=O)C(C)(C)[C@@H](O)CC(=O)O1 [Epothilone A]
[3]; [10]
  inhibition of growth at 5 µM: 20.4%
Microtubule [4]
  EC0.01 microtubule-stabilizing: Epothilone A is a Taxol-like microtubule-stabilizing agent with EC0.01 of 2 μM.

## Cn1c(N2CCCCS2(=O)=O)nc(C(=O)NCc2ccc(F)cc2)c(O)c1=O [BMS-707035]
[3]; [10]
  inhibition of growth at 5 µM: 0.2%
HIV-I integrase (IN)
  IC50: 15 nM

## CC[C@@H]([C@H](C)O)n1ncn(-c2ccc(N3CCN(c4ccc(OC[C@@H]5CO[C@@](Cn6cncn6)(c6ccc(F)cc6F)C5)cc4)CC3)cc2)c1=O [Posaconazole]
[3]; [10]
  inhibition of growth at 5 µM: 0.6%
Sterol C14ɑ demethylase
  IC50: 0.25 nM

## CC(C)CC(=O)Nc1[nH]nc2c1CN(C(=O)C1CCN(C)CC1)C2(C)C [PHA-793887]
[3]; [10]
  inhibition of growth at 5 µM: 0.6%
CDK7
  IC50: 10 nM
CDK2
  IC50: 8 nM
CDK5
  IC50: 5 nM

## CC1=C(C(=O)Nc2cc3cn[nH]c3cc2F)C(c2ccc(C(F)(F)F)cc2)CC(=O)N1 (stereo not drawn) [GSK429286A]
[3]; [10]
  inhibition of growth at 5 µM: 0.9%
ROCK1
  IC50: 14 nM
ROCK2
  IC50: 63 nM

## O=C1NC(=O)/C(=C/c2ccc3nccc(-c4ccncc4)c3c2)S1 [GSK1059615]
[3]; [10]
  inhibition of growth at 5 µM: 40.6%
PI3Kγ [5]
  IC50: 5 nM
PI3Kα
  IC50: 0.4 nM
PI3Kβ
  IC50: 0.6 nM
PI3Kδ
  IC50: 2 nM
mTOR
  IC50: 12 nM

## Cc1[nH]c(/C=C2\C(=O)Nc3ccccc32)c(C)c1CCC(=O)O [TSU-68 (SU6668)]
[3]; [10]
  inhibition of growth at 5 µM: 2.8%
Flk-1/KDR
  Ki: 2100 nM
PDGFRβ
  Ki: 8 nM

## COc1ccc(C2(C#N)CCC(C(=O)O)CC2)cc1OC1CCCC1 (stereo not drawn) [Cilomilast (SB-207499)]
[3]; [10]
  inhibition of growth at 5 µM: 65.2%
LPDE4
  IC50: 100 nM
HPDE4
  IC50: 120 nM

## CC(=O)Nc1nc(C)c(-c2ccc(Cl)c(S(=O)(=O)NCCO)c2)s1 [PIK-93]
[3]; [11]
  inhibition of growth at 5 µM: 1.5%
PI3Kγ [6]
  IC50: […]

## N#CC[C@H](C1CCCC1)n1cc(-c2ncnc3[nH]ccc23)cn1 [Ruxolitinib (INCB018424)]
[3]; [10]
  inhibition of growth at 5 µM: 10.2%
JAK1
  IC50: […]
JAK3
  IC50: […]

## CCN1CCN(Cc2ccc(-c3cc4c(N[C@H](C)c5ccccc5)ncnc4[nH]3)cc2)CC1 [AEE788 (NVP-AEE788)]
[3]; [10]
  inhibition of growth at 5 µM: -2.1%
Flt
  IC50: 59 nM
EGFR
  IC50: 2 nM
VEGFR2
  IC50: 77 nM
HER2/ErbB2
  IC50: 6 nM

## Cc1cc(Cl)ccc1OCCCC(=O)NO [Droxinostat]
HDAC3
  IC50: 16900 nM
[3]; [10]
  inhibition of growth at 5 µM: 7.2%
HDAC8
  IC50: 1460 nM

## Cn1cncc1[C@@](N)(c1ccc(Cl)cc1)c1ccc2c(c1)c(-c1cccc(Cl)c1)cc(=O)n2C [Tipifarnib (Zarnestra)]
[3]; [10]
  inhibition of growth at 5 µM: 6.5%
[7]
  IC50: 0.6 nM

## Cc1ccc(C(=O)N(CCCN)[C@@H](c2nc3cc(Cl)ccc3c(=O)n2Cc2ccccc2)C(C)C)cc1 [Ispinesib (SB-715992)]
[3]; [10]
  inhibition of growth at 5 µM: 2.1%
KSP (HsEg5)
  Ki: 1.7 nM

## NC(=O)[C@@H](CCC(F)(F)F)N(Cc1ccc(-c2ncon2)cc1F)S(=O)(=O)c1ccc(Cl)cc1 [BMS-708163 (Avagacestat)]
[3]; [10]
  inhibition of growth at 5 µM: 8.7%
Aβ42
  IC50: 0.27 nM
Aβ40
  IC50: 0.3 nM

## O=C(NCCCNc1nc(Nc2cccc(NC(=O)N3CCCC3)c2)ncc1I)c1cccs1 [BX-795]
[3]; [10]
  inhibition of growth at 5 µM: 0.7%
TBK1
  IC50: 6 nM
PDK-1
  IC50: 111 nM
IKKε
  IC50: 41 nM

## CC(C)(C)C#Cc1cc(N(C(=O)[C@H]2CC[C@H](C)CC2)[C@H]2CC[C@H](O)CC2)c(C(=O)O)s1 [VX-222]
[3]; [10]
  inhibition of growth at 5 µM: 9.6%
HCV polymerase
  IC50: 940 to 1200 nM

## C[C@H](NCc1ccc(OCc2cccc(F)c2)cc1)C(N)=O [Safinamide Mesylate (FCE28073)]
[3]; [10]
  inhibition of growth at 5 µM: 5.9%
MAO-B
  IC50: […]

## COC(=O)N[C@H](C(=O)N1CCC[C@H]1c1ncc(-c2ccc(-c3ccc(-c4cnc([C@@H]5CCCN5C(=O)[C@@H](NC(=O)OC)C(C)C)[nH]4)cc3)cc2)[nH]1)C(C)C [Daclatasvir (BMS-790052)]
[3]; [10]
  inhibition of growth at 5 µM: 3.9%
HCV NS5A
  EC50: 0.009 to 0.05 nM

## CC1(C)CCC(c2ccc(Cl)cc2)=C(CN2CCN(c3ccc(C(=O)NS(=O)(=O)c4ccc(N[C@H](CCN5CCOCC5)CSc5ccccc5)c(S(=O)(=O)C(F)(F)F)c4)cc3)CC2)C1 [ABT-263 (Navitoclax)]
[3]; [10]
  inhibition of growth at 5 µM: 33.5%
Bcl-w
  Ki: ≤ 1 nM

## COc1nc(C)cnc1NS(=O)(=O)c1cccnc1-c1ccc(-c2nnco2)cc1 [Zibotentan (ZD4054)]
[3]; [10]
  inhibition of growth at 5 µM: 1.8%
Endothelin A (ETA)
  IC50: 21 nM

## COc1ccc(S(=O)(=O)N(C(C)=O)c2ccccc2/C=C/c2cc[n+]([O-])cc2)cc1 [HMN-214]
[3]; [10]
  inhibition of growth at 5 µM: -11.6%
[8]
  IC50: 118 nM

## C/C(=C\c1csc(C)n1)[C@H]1C[C@@H]2O[C@]2(C)CCC[C@H](C)[C@H](O)[C@@H](C)C(=O)C(C)(C)[C@H](O)CC(=O)O1 [Epothilone B (EPO906)]
[3]; [11]
  inhibition of growth at 5 µM: 36.5%
Microtubule [9]
  EC0.01, microtubule stabilization: Epothilone B is a Taxol-like microtubule-stabilizing agent with EC0.01 of 1.8 μM.
